Experimental findings from patent US20220264878A1, “HERBICIDAL COMPOSITION CONTAINING R-TYPE PYRIDYLOXY CARBOXYLIC ACID DERIVATIVE AND USE THEREOF” (Qingdao Kingagroot Chemical Compound Co., Ltd., priority 2019, published 2022) are described below.

Common to all, as to format: in vivo
Experiment [1] concerns Alopecurus japonicus. The experiment in a line: Post-emergence foliage spray, pot culture, fresh weight inhibition (Tables 151-206; 20 days). Here is the method:
(§1) Table 151-206: Digitaria sanguinalis, Amaranthus retroflexus, Conyza Canadensis, Capsella bursa-pastoris, Eleusine indica were collected in Huangdao of Shandong Province, Sinapis arvensis were collected in Sixian of Anhui Province, Alopecurus japonicus were collected in Tianchang of Anhui Province, Veronica didyma were collected in Siyang of Jiangsu Province.
(§2) The above weeds were cultivated by a pot culture method. […] Full and uniform weed seeds were selected, soaked in warm water at 25° C. for 6 hours, and germinated in a 28° C. biochemical incubator (darkness). The weed seeds that had just germinatedwere evenly placed on the surface of the soil and then covered with 0.5-1 cm soil according to the sizes of seeds.
(§3) The culture was carried out in a controllable sunlight greenhouse at 20 to 30° C., in natural light, and relative humidity of 57% to 72%.
(§4) The technical materials were all dissolved in acetone, and diluted with an aqueous solution containing 0.1% emulsifier Tween-80. The dilution is performed as required.
(§5) A ratio of the active ingredient A to the active ingredient B and amounts thereof in each group depends on the characteristics and toxicity of the two agents, as well as the main application purpose of a corresponding formulation. Based on the pre-tests in this study, the dosage of the active ingredient A and B applied alone and in combination were shown in the tables. Water containing the solvent and emulsifier same with the above groups but free of the agents was used as a blank control.
(§6) Table 1-48, 51-98, 101-148, 151-206: […] per treatment, that is, a total of 60 weeds were treated in one treatment.
(§7) Table 151-206: The agents were used for only once in the experiment. In the stage of weeds with 3˜4 leaves, the weeds were thinned out to maintain 15 weeds per pot and 45 weeds for each treatment, then continued to be cultured to 4˜5 leaves stage of grassy weeds, 5˜6 leaves stage of broadleaf weeds, and treated.
(§8) The well-cultured weeds were evenly placed on a platform with an area of 0.5 m^2, and a solution of agents was sprayed on the stems and leaves thereof by the 3WP-2000-type walking spray tower at a dosage of 450 kg/ha and at a spray pressure of 0.3 MPa. After all the solution was sprayed, the valve was closed. After 30 seconds, the door of the spray tower was opened, and the nutritional bowl was taken out. Then the valve was opened, and the spray tube was cleaned by spraying 50 ml of water.
(§9) A pot-culture method was employed. For the cultivation of weeds, please refer to the Section 1.1), and “Pesticide guidelines for laboratory bioactivity tests—herbicides”. As to a method for applying agents, please refer to the section 2.3.2), that is, a foliage treatment was employed. After the treatment, the weeds were routinely cultured in a greenhouse.
(§10) A method for investigating absolute number was employed, wherein whole seedlings of survival weeds were cut off with a blade along the soil surface, and the fresh weight of the weeds was weighed with an analytical balance. For dead weeds, the fresh weight thereof was zero.
(§11) Table 151-206: The investigation was performed after 20 days of the treatment for only once.
(§12) Theoretical fresh weight inhibition rate of a combination of two active ingredients in each group was calculated by the Gowing method (E0=X+Y−X*Y/100), and then compared with an actually measured inhibition rate (E), thereby effect of the combination (hereafter referred to as combined effect) on weeds was evaluated: the value of E-E0, which was greater than 10%, corresponded to a synergistic effect, the value of E-E0, which was less than −10%, corresponded to an antagonistic effect, and the value of E-E0, which was from −10% to 10%, corresponded to an additional effect.

Experiment [2] relates to Digitaria sanguinalis. The experiment is described as above. The protocol: as §1, §2, §3, §4, §5, §6, §7, §8, §9, §10, §11, §12
Experiment [3] relates to Eleusine indica. Described as above. The protocol:
as §1, §2, §3, §4, §5, §6, §7, §8, §9, §10, §11, §12

For experiment [4], the system named is Sinapis arvensis. The description is as above. The protocol:
as §1, §2, §3, §4, §5, §6, §7, §8, §9, §10, §11, §12

The subject of experiment [5] is Conyza Canadensis. The experiment in a line: Post-emergence foliage spray on Conyza Canadensis with a height of 10 cm, fresh weight inhibition (Tables 207-216; 24 days). The settings on record: 24 days after treatment. Here is the method: as §2, §4, §5
In the stage of weeds with 6˜8 leaves, the weeds were thinned out to maintain 3 weeds per pot and 30 weeds for each treatment, then continued to be cultured to Conyza Canadensis with a height of 10 cm, and treated.
as §8, §9, §10
Wherein, in the formula, X represented the fresh weight inhibition rate of the active ingredient A in a dosage of P, and Y represented the fresh weight inhibition rate of the active ingredient B in a dosage of Q.

Where [6] appears, read: B alone 75 g a.i./ha, 20 days after treatment.
[7] abbreviates: B alone 150 g a.i./ha, 20 days after treatment.
[8] abbreviates: B alone 300 g a.i./ha, 20 days after treatment.
Where [9] appears, read: B alone 600 g a.i./ha, 20 days after treatment.

Turning to `O=C(O)CNCP(=O)(O)O` [glyphosate], the “Control effect (%) of B applied alone in corresponding dose” value (“Control effect (%) of B applied alone” for short) in experiment [1] (B 75 g a.i./ha, 20 days) amounted to 7.6%; in experiment [1] (B 150 g a.i./ha, 20 days) it was 19.5%; in experiment [1] (B 300 g a.i./ha, 20 days), 30.8%; in experiment [1] (B 600 g a.i./ha, 20 days), 66.9%; in experiment [1] (setting [6]) it was 7.6%; in experiment [1] (setting [7]), 19.5%. Moreover, the “Control effect (%) of B applied alone” value amounted to 30.8% in experiment [1] (setting [8]); 66.9% in experiment [1] (setting [9]); 12.3% in experiment [2] (B 75 g a.i./ha, 20 days); 24.6% in experiment [2] (B 150 g a.i./ha, 20 days); 43.5% in experiment [2] (B 300 g a.i./ha, 20 days); 76.4% in experiment [2] (B 600 g a.i./ha, 20 days). The “Control effect (%) of B applied alone” value amounted to 12.3% in experiment [2] (setting [6]); 24.6% in experiment [2] (setting [7]); 43.5% in experiment [2] (setting [8]); 76.4% in experiment [2] (setting [9]); 6.9% in experiment [3] (B 75 g a.i./ha, 20 days); 13.6% in experiment [3] (B 150 g a.i./ha, 20 days). The “Control effect (%) of B applied alone” value in experiment [3] (B 300 g a.i./ha, 20 days) amounted to 21.3%; in experiment [3] (B 600 g a.i./ha, 20 days), 68.9%; in experiment [3] (setting [6]), 6.9%; in experiment [3] (setting [7]) it was 13.6%; in experiment [3] (setting [8]), 21.3%; in experiment [3] (setting [9]), 68.9%. Also, the “Control effect (%) of B applied alone” value is 2.5% in experiment [4] (B 75 g a.i./ha, 20 days); 9.4% in experiment [4] (B 150 g a.i./ha, 20 days); 19.8% in experiment [4] (B 300 g a.i./ha, 20 days); 37.2% in experiment [4] (B 600 g a.i./ha, 20 days); 2.5% in experiment [4] (setting [6]); 9.4% in experiment [4] (setting [7]). Moreover, the “Control effect (%) of B applied alone” value in experiment [4] (setting [8]) is 19.8%; in experiment [4] (setting [9]), 37.2%.
As to `COC(=O)c1nc(-c2ccc(Cl)c(OC)c2F)cc(N)c1Cl` [halauxifen-methyl], the “Control effect (%) of B applied alone” value in experiment [5] (B alone 3.75 g a.i./ha) was found to be 20.5%; in experiment [5] (B alone 15 g a.i./ha) it was 81.5%.
Consider `Nc1c(Cl)c(Cl)nc(C(=O)O)c1Cl` [picloram], for which the “Control effect (%) of B applied alone” value in experiment [5] (B alone 7.5 g a.i./ha) was found to be 5.0%; in experiment [5] (B alone 60 g a.i./ha), 69.4%.
As to `O=C(O)c1c(Cl)ccc2cc(Cl)cnc12` [quinclorac], the “Control effect (%) of B applied alone” value in experiment [5] (B alone 30 g a.i./ha) came to 11.7%; in experiment [5] (B alone 60 g a.i./ha) it was 28.8%; in experiment [5] (B alone 120 g a.i./ha), 53.7%; in experiment [5] (B alone 240 g a.i./ha) it was 76.2%.
As to `O=C(O)COc1nc(Cl)c(Cl)cc1Cl` [triclopyr], the “Control effect (%) of B applied alone” value in experiment [5] (B alone 300 g a.i./ha) is reported as 78.4%.
